Paper PMC12291851, “Hydrogen Sulfide (H2S)-Donating Formyl Peptide Receptor 2 (FPR2) Agonists: Design, Synthesis, and Biological Evaluation in Primary Mouse Microglia Culture” (Antioxidants, 2025)

Key:
IL-6 = IL-6 ELISA in medium of microglial cultures; format: cell-based, mouse; settings: 1 μM pretreatment 1 h, then LPS 0.1 μg/mL 24 h
Procedure: Primary microglial cell cultures were derived from the cortices of 1–2-day-old mouse pups (1pup/1 brain/1 flask). After decapitation, the brains were extracted and immediately placed in cold Hanks’ Balanced Salt Solution (HBSS, Gibco, New York, NY, USA) on ice. The brains were washed at least three times with 7 mL of HBSS and then transferred to 10 mL of fresh culture media consisting of Dulbecco’s Modified Eagle Medium (DMEM) with GlutaMax and high glucose (4.5 g/L) (Gibco, New York, NY, USA) on ice. The tissue was minced and incubated in HBSS containing glucose, bovine serum albumin (BSA; Sigma-Aldrich, St. Louis, MO, USA), and HEPES (Gibco, New York, NY, USA) with 0.025% trypsin at 37 °C for 20 min. […] The purity of microglial cell cultures was assessed as we have shown previously. […]
To assess the effect of test compounds on IL-18, IL-6, and IL-10 levels, the medium of microglial cell cultures was collected 24 h after LPS treatment. The protein levels of the cytokines IL-18 (Mouse interleukin 18 ELISA kit), IL-6 (Mouse interleukin 6 ELISA kit), and IL-10 (Mouse interleukin 10 ELISA kit; all obtained from FineTest, Wuhan, China) were measured using commercially available enzyme-linked immunosorbent assay kits according to the manufacturer’s instructions. […]

FPR2 = target: T1, FPR2 (Homo sapiens, UniProt P25090); assay: FPR2 desensitization: inhibition of WKYMVM-induced Ca2+ mobilization in FPR2-HL60 cells; format: cell-based; design: expressed in transfected cells; host or cells: HL-60 cells; settings: 10 min preincubation, then 5 nM WKYMVM
T1 sequence (P25090 1-351): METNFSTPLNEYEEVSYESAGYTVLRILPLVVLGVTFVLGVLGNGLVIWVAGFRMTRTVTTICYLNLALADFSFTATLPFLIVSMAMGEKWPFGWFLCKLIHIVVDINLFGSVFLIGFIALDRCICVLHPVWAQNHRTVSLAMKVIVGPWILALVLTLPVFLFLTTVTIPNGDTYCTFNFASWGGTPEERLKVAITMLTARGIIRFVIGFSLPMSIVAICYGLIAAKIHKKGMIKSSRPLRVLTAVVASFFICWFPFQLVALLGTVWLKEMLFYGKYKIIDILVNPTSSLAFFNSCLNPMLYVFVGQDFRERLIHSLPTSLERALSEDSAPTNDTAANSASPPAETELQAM
Excerpt: Finally, we assessed the ability of compounds to induce receptor desensitization at FPR2 by measuring the inhibition of Ca^2+ mobilization induced by subsequent treatment with a standard FPR2 agonist (IC50, Table 1) because FPR2 undergoes homologous desensitization after stimulation with agonists, resulting in functional antagonism (IC50, Table 1). […] We also evaluated the effects of the thiourea and thioamide derivatives on Ca^2+ mobilization in FPR1-HL60-transfected cells after stimulation with the FPR1 agonist (IC50, Table 1).

HepG2 cells = assay: Intracellular H2S release with WSP-1 probe; format: cell-based, human; settings: for intracellular H2S release, WSP-1 fluorescence signal vs vehicle: HepG2, tested concentrations 100-300 μM, 60 min
Procedure: All cell culture reagents were purchased from S.I.A.L. S.r.l. (Rome, Italy). WSP-1 (Washington State Probe-1, 3′-methoxy-3-oxo-3H-spiro[isobenzofuran-1,9′-xanthen]-6′-yl 2-(pyridine-2-yl-disulfanyl benzoate), was obtained from Cayman Chemical (Cayman, Ann Arbor, MI, USA). HepG2, human hepatocellular carcinoma cells, was obtained from American Type Culture Collection (ATCC, Bethesda, MD, USA). Human hepatocellular carcinoma cells (HepG2) were cultured in Minimum Essential Eagle’s Medium. This medium was supplemented with 10% (v/v) Fetal Bovine Serum, 1% (v/v) Glutamine and 1% (v/v) Penicillin-Streptomycin, 1% non-essential amino acids. Cells were cultivated at 37 °C with 5% CO2 at saturated humidity.
These experiments were carried out as already described. HepG2 cells were cultured up to about 90% confluence, and 24 h before the experiment cells were seeded into a 96-well flat bottom black plate (50,000 cells per well). After 24 h, the medium was replaced and cells were incubated at 37 °C for 30 min with a 10 mM solution of the fluorescent WSP-1 probe, which is highly sensitive for H2S detection. After incubation, the supernatant was removed and replaced with different concentrations (100, 200, and 300 µM) of the tested compounds dissolved in HBSS buffer. […] ADT 100 µM was used as a slow H2S-donor reference compound. Data were analyzed by one-way ANOVA for repeated measures, followed by post hoc Bonferroni’s multiple comparison test. Results are expressed as mean ± SEM of 3 independent experiments in triplicate. Statistical significance was accepted at a level of p < 0.05.
Next, we assessed the intracellular H2S release of thioureas and thioamides in HepG2 cells. The compounds were tested at different concentrations (100–300 μM) to evaluate if the release was dose-dependent. We also assayed ADT-OH and TIA as reference H2S-donors, and 3a as a negative control. The results were normalized to the fluorescence signal obtained with 100 μM ADT-OH.

| Compound | LPS-induced increase of IL-6 level (IL-6) | Ca2+ Mobilization HL60-FPR2 IC50 (FPR2 desensitization) (FPR2) | IC50 (FPR2) | intracellular level of H2S vs reference H2S donor ADT (HepG2 cells; HepG2, at 200 and 300 μM, p < 0.001 vs. ADT) | intracellular H2S release, WSP-1 fluorescence signal vs vehicle (HepG2 cells) | levels of H2S release in HepG2 cells (HepG2 cells; summary of WSP-1 results) |
| --- | --- | --- | --- | --- | --- | --- |
| N#Cc1ccc(C[C@H](NC(=O)Nc2ccc(F)cc2)C(=S)N2CCc3ccccc32)cc1 [7b, (S)-1-[3-(4-Cyanophenyl)-1-(indolin-1-yl)-1-thioxopropan-2-yl]-3-(4-fluorophenyl)urea] | able to counterbalance the LPS-induced increase | submicromolar concentration | 60 ± 20 nM | more than the reference H2S donor ADT | significant fluorescence signal increase at all tested concentrations | very high levels of H2S release |
| N#Cc1ccc(C[C@H](NC(=O)Nc2ccc(Br)cc2)C(=S)N2CCc3ccccc32)cc1 [8b, (S)-1-(4-Bromophenyl)-3-[3-(4-cyanophenyl)-1-(indolin-1-yl)-1-thioxopropan-2-yl]urea] | able to counterbalance the LPS-induced increase | submicromolar concentration | 7 ± 3 nM |  | not statistically significant |  |
